Consider 4 molecules from ChEMBL document CHEMBL4052825, “Identification of Novel Coumestan Derivatives as Polyketide Synthase 13 Inhibitors against Mycobacterium tuberculosis” (J Med Chem, 2018).

The subject of assay [1] is Mycobacterium tuberculosis. The assay is described as follows: Antitubercular activity against isoniazid/rifampicin/fluoroquinolone-resistant Mycobacterium tuberculosis. The class given is functional.
Assay [2] has as its system Mycobacterium tuberculosis. The assay is described as follows: Antitubercular activity against resistant Mycobacterium tuberculosis harboring PKS13 mutant after 12 to 24 hrs by MABA. The class given is functional.
Assay [3] can be described thus: Selectivity ratio of MIC=<90 for resistant Mycobacterium tuberculosis harboring PKS13 mutant to MIC=<90 for Mycobacterium tuberculosis H37Rv.

Values after ≈ are worked out from the molar mass of the structure shown.

`CCOC(=O)c1c(NC(=O)c2c(F)c(F)c(F)c(F)c2F)sc2c1CCN(CC)C2` displayed a minimum inhibitory concentration (MIC) in assay [1] of 0.2 to 0.4 µM (≈ 0.0897 to 0.179 µg/mL).
As for `COc1ccc2c(c1)oc(=O)c1c2oc2ccc(O)c(CN3CCCCC3)c21`, the “MIC=<90” value in assay [2] was determined as 16 µg/mL (≈ 42.2 µM). Further, the Selectivity ratio in assay [3] amounted to 64.
Turning to `O=c1oc2ccccc2c2oc3ccc(O)c(CN4CCCCC4)c3c12`, the “MIC=<90” value in assay [2] was found to be 16 µg/mL (≈ 45.8 µM). For the same molecule, the Selectivity ratio in assay [3] was 64 to 128.
With `CCOC(=O)c1c(-c2ccc(F)cc2)oc2ccc(O)c(CN3CCCCC3)c12`, the “MIC=<90” value in assay [2] was found to be 4 µg/mL (≈ 10.1 µM). In addition, in assay [3], the Selectivity ratio came out at 8.
